# Source: patent US8952249B2, “1,4-fullerene addends in photovoltaic cells” (The Regents of the University of California, priority 2010, dated 2015)
# How the values were obtained:
# [1] = Cyclic voltammetry: reduction potentials and energy of the LUMO; type: physicochemical; details: 1,2-dichlorobenzene, Bu4NClO4 (0.1 M), Pt wire counter electrode, 50 mV/s scan rate
# Source text: The synthesis of fullerenol was previously reported.^6 From fullerenol, we herein report on the syntheses of a set of derivatives by arylation as described in FIG. 1. In a typical reaction, fullerenol is reacted with a specific substrate (a substituted aryl) used as the solvent in the presence of p-toluene sulfonic acid (TsOH) as the catalyst. Following this procedure we synthesized: PEHOB (FIG. 2) (C60 functionalized with a phenyl group on C1 and an ethylhexyloxybenzene group on C4), PCVM (FIG. 3) (Phenyl on C1 and phenylvaleric acid methyl ester on C4), PTHOB (FIG. 4) (phenyl on C1 and trihexyloxyphenyl on C4), PFOH (FIG. 5) (phenyl on C1 and hydroxyl on C4); PFTFP (FIG. 6) (p-trifluorophenyl on C1 and pentafluorophenyl on C4) and ANP (FIG. 7) (phenyl on C1 and aniline on C4). 1H NMR, 13C NMR, 19F NMR and field desorption (FD) mass spectroscopy confirmed the identity of the products. The adducts were further characterized by cyclic voltammetry (CV) and UV-vis spectroscopy. […] From the first reduction potential calculated by CV we determined the energy of the LUMO. An estimated value of the HOMO was inferred from the onset of the UV-vis spectra. In order to modify the property of the derivatives, we appended (i) long alkyl chains to increase solubility and (ii) electron withdrawing or (iii) electron donating groups to stabilize or destabilize the energy of the LUMO respectively. Due to the spherical shape of C60, heteroatoms or functional groups appended on the fullerene can only affect the energy of the molecular orbitals by induction. Therefore, an electron donating group directly bound to C60 such a methoxy will […] the energy of the LUMO because of the higher electronegativity of the oxygen. […] These values are in agreement with previous reports.^8, 9 Table 1 (see below) summarizes the electrochemical data calculated for all the derivatives. […]
# [2] = set-up: unit not given here; details: PCBM analogues described by Hummelen et al.; cited from earlier work
smiles,measurement,setting,value
"COC(=O)CCCC1(c2ccccc2)C23c4c5c6c7c8c9c(c%10c%11c2c2c%12c4c4c%13c5c5c7c7c8c8c%14c9c%10c9c%10c%11c2c2c%11c%12c4c4c%12c%13c5c5c7c7c8c8c%14c9c9c%10c2c2c%11c4c4c%12c5c7c5c8c9c2c45)C613 (stereo not shown) [PCBM, [6,6]-phenyl-C61-butyric acid methyl ester]",E1red,[1],−1.056 V vs Fc/Fc+
same,E2red,[1],−1.471 V vs Fc/Fc+
same,E3red,[1],−1.957 V vs Fc/Fc+
same,redox potential,[2],−1.08
